Values after ≈ are worked out from the molar mass of the structure shown. Values belong to the compound of their own block, whether it stands above or below them.
What was measured:
Experiment in all cases: ≥ marks a high value that may be exact or a test limit, other limits are often not marked, values filed in µg/mL are converted to µM
[1] = tested on: Escherichia coli ATCC 35218
[2] = tested on: Staphylococcus aureus ATCC 6538
[3] = tested on: Streptococcus mutans ATCC 25175
[4] = tested on: Salmonella enterica subsp. enterica serovar Typhimurium ATCC 14028
[5] = tested on: Bacillus cereus ATCC 14579
[6] = tested on: Klebsiella pneumoniae ATCC 700603
Pseudomonas aeruginosa = tested on: Pseudomonas aeruginosa
Escherichia coli JM109 = tested on: Escherichia coli JM109
[7] = tested on: Staphylococcus aureus ATCC 6538P
Staphylococcus aureus = tested on: Staphylococcus aureus
[8] = tested on: Staphylococcus aureus IFO 12732
[9] = tested on: Bacillus subtilis IFO 3513
[10] = tested on: Escherichia coli IFO 12734
[11] = tested on: Proteus mirabilis ATCC 25933
[12] = tested on: Staphylococcus aureus ATCC 25923
[13] = tested on: Pseudomonas aeruginosa ATCC 27853
Acinetobacter baumannii = tested on: Acinetobacter baumannii
[14] = tested on: Staphylococcus aureus ATCC 29213
[15] = tested on: Staphylococcus epidermidis RP62A/1
[16] = tested on: Escherichia coli ATCC 25726
[17] = tested on: Candida albicans ATCC 90028
[18] = tested on: Stenotrophomonas maltophilia
[19] = tested on: Staphylococcus epidermidis RP62A
[20] = tested on: Micrococcus luteus ATCC 9341
[21] = tested on: Staphylococcus aureus ATCC 33591
[22] = tested on: Staphylococcus aureus ATCC 700699
[23] = tested on: Escherichia coli ATCC 25922

MIC [1]: 8.52 µM (≈ 11.8 µg/mL)
MIC [2]: 43.2 µM (≈ 59.7 µg/mL)
MIC [3]: 23.6 µM (≈ 32.6 µg/mL)
MIC [4]: 12.2 µM (≈ 16.8 µg/mL)
MIC [5]: ≥ 41.5 µM
MIC [6]: 13.3 µM (≈ 18.4 µg/mL)
SMILES: CC[C@H](C)[C@H](N)C(=O)N[C@@H](CC(N)=O)C(=O)N[C@@H](CC(C)C)C(=O)N[C@@H](CCCCN)C(=O)N[C@@H](C)C(=O)N[C@H](C(=O)N[C@@H](C)C(=O)N[C@@H](C)C(=O)N[C@@H](CC(C)C)C(=O)N[C@H](C(=O)N[C@@H](CCCCN)C(=O)N[C@@H](CCCCN)C(=O)N[C@H](C(=O)O)C(C)C)C(C)C)[C@@H](C)CC [INLKAIAALVKKV]

MIC [8]: 3.45 µM (≈ 6.25 µg/mL)
MIC [9]: 1.73 µM (≈ 3.13 µg/mL)
MIC [10]: 27.6 µM (≈ 50 µg/mL)
SMILES: CC[C@H](C)[C@H](N)C(=O)N[C@@H](CC(C)C)C(=O)N1CCC[C@H]1C(=O)N[C@@H](Cc1c[nH]c2ccccc12)C(=O)N[C@@H](CCCCN)C(=O)N[C@@H](Cc1c[nH]c2ccccc12)C(=O)N1CCC[C@H]1C(=O)N[C@@H](Cc1c[nH]c2ccccc12)C(=O)N[C@@H](CC(C)C)C(=O)N1CCC[C@H]1C(=O)N[C@@H](Cc1ccc(O)cc1)C(=O)N[C@@H](CCCN=C(N)N)C(=O)N[C@@H](CCCN=C(N)N)C(N)=O [ILPWKWPWLPYRR]

MIC [20]: 0.4 µM (≈ 0.763 µg/mL)
MIC [8]: 0.818 µM (≈ 1.56 µg/mL)
MIC [9]: 0.818 µM (≈ 1.56 µg/mL)
MIC [10]: 6.55 µM (≈ 12.5 µg/mL)
SMILES: CC[C@H](C)[C@H](NC(=O)[C@H](CC(C)C)NC(=O)[C@@H]1CCCN1C(=O)[C@H](Cc1c[nH]c2ccccc12)NC(=O)[C@H](CCCCN)NC(=O)[C@H](Cc1c[nH]c2ccccc12)NC(=O)[C@@H]1CCCN1C(=O)[C@H](Cc1c[nH]c2ccccc12)NC(=O)[C@H](Cc1c[nH]c2ccccc12)NC(=O)[C@@H]1CCCN1C(=O)[C@H](Cc1c[nH]c2ccccc12)NC(=O)[C@H](CCCN=C(N)N)NC(=O)[C@@H](N)CCCN=C(N)N)C(N)=O [RRWPWWPWKWPLI]

MIC (Escherichia coli JM109): 19.1 µM (≈ 24 µg/mL)
MIC [7]: 4.76 µM (≈ 6 µg/mL)
MIC (Staphylococcus aureus): 38.1 µM (≈ 48 µg/mL)
SMILES: CC[C@H](C)[C@H](NC(=O)[C@H](C)NC(=O)[C@H](CC(C)C)NC(=O)[C@H](CS)NC(=O)[C@H](CC(C)C)NC(=O)[C@H](C)NC(=O)[C@H](C)NC(=O)[C@H](CS)NC(=O)[C@@H](N)CC(C)C)C(=O)NCC(=O)N[C@@H](CCCN=C(N)N)C(=O)N[C@@H](CCCN=C(N)N)C(N)=O [LCAALCLAIGRR]

More lines, now with the values behind:

SMILES: CC[C@H](C)[C@H](NC(=O)[C@H](C)NC(=O)[C@H](CC(C)C)NC(=O)[C@H](CCCN=C(N)N)NC(=O)[C@H](CC(C)C)NC(=O)[C@H](C)N)C(=O)N[C@@H](CCCN=C(N)N)C(=O)N[C@@H](CCCN=C(N)N)C(=O)N[C@@H](CCCN=C(N)N)C(N)=O [ALRLAIRRR]
MIC (Pseudomonas aeruginosa): 2.67 µM (≈ 3 µg/mL)
MIC (Escherichia coli JM109): 1.33 µM (≈ 1.5 µg/mL)
MIC [7]: 1.78 µM (≈ 2 µg/mL)
MIC (Staphylococcus aureus): > 42.7 µM

SMILES: CC[C@H](C)[C@H](N)C(=O)N[C@@H](CC(C)C)C(=O)N1CCC[C@H]1C(=O)N[C@@H](CC(C)C)C(=O)N[C@@H](CCCCN)C(=O)N[C@@H](Cc1c[nH]c2ccccc12)C(=O)N1CCC[C@H]1C(=O)N[C@@H](Cc1c[nH]c2ccccc12)C(=O)N[C@@H](Cc1c[nH]c2ccccc12)C(=O)N1CCC[C@H]1C(=O)N[C@@H](Cc1c[nH]c2ccccc12)C(=O)N[C@@H](CCCN=C(N)N)C(=O)N[C@@H](CCCN=C(N)N)C(N)=O [ILPLKWPWWPWRR]
MIC [8]: 1.71 µM (≈ 3.13 µg/mL)
MIC [9]: 1.71 µM (≈ 3.13 µg/mL)
MIC [10]: 13.6 µM (≈ 25 µg/mL)

SMILES: CC[C@H](C)[C@H](N)C(=O)N[C@@H](CCCCN)C(=O)N[C@@H](CC(C)C)C(=O)N[C@@H](CO)C(=O)N[C@@H](CCCCN)C(=O)N[C@@H](CCC(=O)O)C(=O)N[C@H](C(=O)N[C@@H](CCCCN)C(=O)N[C@@H](CC(=O)O)C(=O)N[C@@H](CC(N)=O)C(=O)N[C@@H](CC(C)C)C(=O)N[C@@H](CCCCN)C(=O)N[C@@H](CCCCN)C(=O)N[C@H](C(=O)N[C@@H](CC(C)C)C(=O)N[C@@H](CCCCN)C(=O)NCC(=O)N[C@@H](C)C(=O)N[C@H](C(=O)N[C@@H](CCCCN)C(=O)NCC(=O)N[C@@H](C)C(=O)N[C@H](C(=O)N[C@@H](C)C(=O)N[C@H](C(=O)N[C@@H](C)C(=O)N[C@@H](CCCCN)C(=O)N[C@@H](CCSC)C(=O)N[C@H](C(N)=O)C(C)C)C(C)C)[C@@H](C)CC)[C@@H](C)CC)C(C)C)[C@@H](C)O [IKLSKETKDNLKKVLKGAIKGAIAVAKMV]
MIC [11]: ≥ 100 µM
MIC [12]: 6.25 µM (≈ 19.3 µg/mL)
MIC [13]: 25 µM (≈ 77.4 µg/mL)
MIC (Acinetobacter baumannii): 6.25 µM (≈ 19.3 µg/mL)
MIC [14]: 6.25 µM (≈ 19.3 µg/mL)
MIC [15]: 1.6 µM (≈ 4.95 µg/mL)
MIC [16]: 12.5 µM (≈ 38.7 µg/mL)
MIC [17]: ≥ 50 µM
MIC [6]: 12.5 µM (≈ 38.7 µg/mL)
MIC [18]: 3.1 µM (≈ 9.59 µg/mL)
MIC [19]: 1.6 µM (≈ 4.95 µg/mL)

SMILES: CC[C@H](C)[C@H](NC(=O)[C@H](CC(=O)O)NC(=O)[C@H](CCCCN)NC(=O)[C@H](C)NC(=O)[C@H](C)NC(=O)CNC(=O)[C@H](CCCCN)NC(=O)[C@H](CC(C)C)NC(=O)[C@@H](NC(=O)[C@H](CC(=O)O)NC(=O)[C@@H](NC(=O)[C@@H](NC(=O)CN)C(C)C)C(C)C)[C@@H](C)CC)C(=O)N[C@@H](C)C(=O)NCC(=O)N[C@@H](Cc1cnc[nH]1)C(=O)N[C@@H](CC(C)C)C(=O)N[C@@H](C)C(=O)N[C@@H](CO)C(=O)N[C@@H](CCCCN)C(=O)N[C@H](C(=O)N[C@@H](C)C(=O)N[C@@H](CC(N)=O)C(=O)N[C@@H](CCCCN)C(=O)N[C@@H](CC(C)C)C(N)=O)C(C)C [GVVDILKGAAKDIAGHLASKVANKL]
MIC [13]: > 100 µM
MIC [14]: > 100 µM
MIC [21]: ≥ 100 µM
MIC [22]: ≥ 100 µM
MIC [6]: > 100 µM
MIC [23]: > 100 µM

SMILES: CC[C@H](C)[C@H](N)C(=O)N[C@@H](CCCCN)C(=O)N[C@@H](CC(C)C)C(=O)N[C@@H](CO)C(=O)N[C@@H](CCCCN)C(=O)N[C@@H](CCC(=O)O)C(=O)N[C@H](C(=O)N[C@@H](CCCCN)C(=O)N[C@@H](CCCCN)C(=O)N[C@@H](CC(N)=O)C(=O)N[C@@H](CC(C)C)C(=O)N[C@@H](CCCCN)C(=O)N[C@@H](CCCCN)C(=O)N[C@H](C(=O)N[C@@H](CC(C)C)C(=O)N[C@@H](CCCCN)C(=O)NCC(=O)N[C@@H](C)C(=O)N[C@H](C(=O)N[C@@H](CCCCN)C(=O)NCC(=O)N[C@@H](C)C(=O)N[C@H](C(=O)N[C@@H](C)C(=O)N[C@H](C(=O)N[C@@H](C)C(=O)N[C@@H](CCCCN)C(=O)N[C@@H](CCSC)C(=O)N[C@H](C(N)=O)C(C)C)C(C)C)[C@@H](C)CC)[C@@H](C)CC)C(C)C)[C@@H](C)O [IKLSKETKKNLKKVLKGAIKGAIAVAKMV]
MIC [11]: ≥ 100 µM
MIC [12]: 3.1 µM (≈ 9.63 µg/mL)
MIC [13]: 12.5 µM (≈ 38.8 µg/mL)
MIC (Acinetobacter baumannii): 3.1 µM (≈ 9.63 µg/mL)
MIC [14]: 6.25 µM (≈ 19.4 µg/mL)
MIC [15]: 1.6 µM (≈ 4.97 µg/mL)
MIC [16]: 6.25 µM (≈ 19.4 µg/mL)
MIC [17]: ≥ 50 µM
MIC [6]: 6.25 µM (≈ 19.4 µg/mL)
MIC [18]: 3.1 µM (≈ 9.63 µg/mL)
MIC [19]: 1.6 µM (≈ 4.97 µg/mL)

SMILES: CC[C@H](C)[C@H](NC(=O)[C@H](CC(=O)O)NC(=O)[C@H](CCCCN)NC(=O)[C@H](C)NC(=O)[C@H](C)NC(=O)CNC(=O)[C@H](CCCCN)NC(=O)[C@H](CC(C)C)NC(=O)[C@@H](NC(=O)[C@H](CC(=O)O)NC(=O)[C@@H](NC(=O)[C@@H](NC(=O)CN)C(C)C)C(C)C)[C@@H](C)CC)C(=O)N[C@@H](C)C(=O)N[C@@H](C)C(=O)N[C@@H](Cc1cnc[nH]1)C(=O)N[C@@H](CC(C)C)C(=O)N[C@@H](C)C(=O)N[C@@H](CO)C(=O)N[C@@H](CCCCN)C(=O)N[C@H](C(=O)N[C@@H](CCSC)C(=O)N[C@@H](CC(N)=O)C(=O)N[C@@H](CCCCN)C(=O)N[C@@H](CC(C)C)C(N)=O)C(C)C [GVVDILKGAAKDIAAHLASKVMNKL]
MIC [13]: 100 µM (≈ 256 µg/mL)
MIC [14]: > 100 µM
MIC [21]: ≥ 100 µM
MIC [22]: ≥ 100 µM
MIC [6]: 50 µM (≈ 128 µg/mL)
MIC [23]: 12.5 µM (≈ 32 µg/mL)

From DBAASP
